The subject of one assay is rat liver elongase. Put plainly: Elongation of [1-14C]20:5n-3 in rat liver microsomes. Particulars: for % conversion 24:6n-3: delta-6-desaturation product of 24:5n-3, control 9.1; for % conversion 22:5n-3 / % conversion 24:5n-3 / % conversion Total: substrate [1-14C]20:5n-3; for % conversion 22:5n-3: control 11.6; for % conversion 24:5n-3: control 39.7; for % conversion Total: control 60.4. It is filed as biochemical. As to the method:
Wistar rats under light halothane (15% in mineral oil) anesthesia were sacrificed by exsanguination during periods of high enzyme activity. Livers were immediately rinsed with cold 0.9% NaCl solution, weighed and minced with scissors. All procedures were performed at 4° C. unless specified-otherwise. Livers were homogenized in a solution (1:3 w/v) containing 0.25 M sucrose, 62 mM potassium phosphate buffer (pH 7.0), 0.15 M KCl, 1.5 mM N-acetylcysteine, 5 mM MgCl2, and 0.1 mM EDTA using 4 strokes of a Potter-Elvehjem tissue homogenizer. The homogenate was centrifuged at 10,400×g for 20 min to pellet mitochondria and cellular debris. The supernatant was filtered through a 3-layer cheesecloth and centrifuged at 105,000×g for 60 min. The microsomal pellet was gently resuspended in the same homogenization solution with a small glass/teflon homogenizer and stored at −80° C. The absence of mitochondrial contamination was enzymatically assessed as described elsewhere (Kilberg, M. S. and Christensen H. N., 1979, Biochemistry, 18: 1525-1530). The protein concentration was measured by the method of Lowry et al (1951, J. Biol. Chem., 193: 265-275) with bovine serum albumin as standard.
Reactions were performed using 500 μg of rat liver microsomal protein with the same concentrations of pebulate sulphoxide, radiolabelled fatty acid, conditions and procedures described in Example 21.
The enzyme activity was expressed in percent conversion of radiolabelled 20:5n-3 into its elongation and final delta-6-desaturation products (i.e., 22:5n-3, 24:5n-3 and 24:6n-3).
(Microsomes from liver hold many membrane-bound enzymes, among them those of drug oxidation.)

Another assay concerns the target T1, ELG3/V5-His (Homo sapiens, UniProt Q9NXB9).
T1 construct: made in house; host or cells: Saccharomyces cerevisiae (INVSc1), microsomal fraction
T1 sequence (Q9NXB9 1-296): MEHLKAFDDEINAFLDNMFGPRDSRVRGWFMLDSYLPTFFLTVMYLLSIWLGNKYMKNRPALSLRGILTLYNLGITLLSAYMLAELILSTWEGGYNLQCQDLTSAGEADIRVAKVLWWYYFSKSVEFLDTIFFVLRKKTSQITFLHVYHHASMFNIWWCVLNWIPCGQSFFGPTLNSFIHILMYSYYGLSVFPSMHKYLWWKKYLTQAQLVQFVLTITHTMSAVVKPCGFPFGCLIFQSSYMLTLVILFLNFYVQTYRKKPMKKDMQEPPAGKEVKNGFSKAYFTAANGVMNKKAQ
Put plainly: Elongation of [1-14C]20:5n-3 in microsomes of yeast expressing ELG3/V5-His. It counts as biochemical. Particulars: for % conversion 24:5n-3 / % conversion 22:5n-3 / % conversion Total: substrate [1-14C]20:5n-3 7.2 μM; for % conversion 24:5n-3: control 5.0; for % conversion 22:5n-3: control 13.7; for % conversion Total: control 18.7. As to the method:
A sulphoxide derivative of S-propylbutylethylthiocarbamate (pebulate sulphoxide) was obtained from Zeneca Agrochemicals, UK, and dissolved in ethanol at a concentration of 5 mM.
A 51 culture of Saccharomyces cerevisiae transformed with pTh1017.1 encoding ELG3/V5-His was started with a cell density of approximately 3.2×10^5 cells/ml (O.D.600 0.4) using SC-U medium with 1% raffinose. After 8 h of incubation at 30° C. in an orbital shaker at 270 rpm, galactose was added to a final concentration of 2%. Yeast were incubated for an additional 12 h until they were harvested by centrifugation at 2060×g for 10 minutes at 4° C. and washed with water. The cell pellet was resuspended in ⅓ of its volume in a pH 7.2 isolation buffer (80 mM Hepes-KOH, 10 mM KCl, 320 mM sucrose, 2 mM PMSF and a protease inhibitor cocktail). The cell suspension was poured into a mortar containing liquid N2 and ground with sand using a ceramic pestle. The yeast powder was transferred to a conical test tube, to which ⅔ of the pellet volume of isolation buffer was added. The sand was removed by centrifugation at 228×g for 1 min and the suspension centrifuged at 10,000×g for 20 min to separate cell debris, nuclei and mitochondria. The supernatant was centrifuged at 106,000×g for 1.5 h to obtain the microsomal pellet, which was resuspended in storage buffer (80 mM Hepes-KOH, 10 mM KCl, 320 mM sucrose, 1 mM PMSF and a protease inhibitor cocktail) to a final protein concentration of 20 μg/μl. The protein concentration was measured by the method of Lowry et al. (1951, .J Biol. Chem., 193: 265-275) with bovine serum albumin as standard.
The activity of ELG3/V5-His was determined by measuring the conversion of [1-^14C]20:5n-3 to [1-^14C]22:5n-3 and [1-^14C]24:5n-3. Reactions were started by adding 500 μg of yeast microsomal protein to pre-incubated tubes containing 0.20 μCi of the substrate fatty acid at a final concentration of 7.2 μM in 0.25 ml of 80 mM Hepes-KOH (pH 7.2) with 43 mM MgCl2, 1.0 mM ATP,500 μM NADPH, 10 μM coenzyme A, 100 μM […] (as lithium salt) and pebulate sulphoxide at concentrations that ranged between 1 to 100 μM. The tubes were vortexed vigorously and after 30 min incubation at 37° C. in a shaking water bath, the reactions were stopped by the addition of 2 ml of 10% (w/v) KOH in ethanol. Lipids in the incubation mixture were saponified at 80° C. for 45 min under N2. The samples were then left in ice for 5 min before acidification with 750 μl of concentrated HCl. […] The fatty acid methyl esters were analyzed by HPLC as described in Example 19.
The enzyme activity was expressed in percent conversion of radiolabelled 20:5n-3 into its elongation products. Alternatively, it can be expressed in pmol of the fatty acids produced/mg microsomal protein/min.

The subject of another assay is 20:5n-3. In words: Elongation of [1-14C]20:5n-3 in yeast expressing human elongases (RP-HPLC). Particulars: untagged elongase, 25 μM substrate.
A further assay has as its system 18:3n-3. In words: Elongation of [1-14C]18:3n-3 in yeast expressing human elongases (RP-HPLC). As to conditions: for Percent Elongation of 18:3n-3 to 20:3: product 20:3n-3.
A further assay has as its system 18:3n-6. In words: Elongation of [1-14C]18:3n-6 in yeast expressing human elongases (RP-HPLC). Particulars: untagged elongase, 25 μM substrate; for Percent Elongation of 18:3n-6 to 20:3: product 20:3n-6.
In another assay the test system is 20:4n-6. Put plainly: Elongation of [1-14C]20:4n-6 in yeast expressing human elongases (RP-HPLC). Particulars: for Percent Elongation of 20:4n-6 to 22:4: product 22:4n-6.
[1] abbreviates: untagged elongase, 25 μM substrate.

From the text for 18:3n-3: (§1) For the expression of ELG1, ELG2, ELG3, ELG4, ELG5, ELG6 or ELG7 the yeast were transformed with pTh1009.1, pTh1014.1, pTh1015.1, pTh1021.1, pTh1018.1, pTh1041.1 or pTh1044.1, respectively. For the expression of ELG1/V5-His, ELG2/V5-His, ELG3/V5-His, ELG4/V5-His, ELG5/V5-His, ELG6/V5 -His or ELG7/V5-His the yeast were transformed with pTh1009.2, pTh1014.2, pTh1017.1, pTh1021.2, pTh1019.1, pTh1042.1 or pTh1045.1, respectively. Recombinant yeast cells were selected on SC-U medium.
(§2) Transformed yeast (approximately 3.2×10^6 cells/ml; O.D.600 0.4) were incubated in a 125 ml Erlenmeyer containing 10 ml of SC-U medium with 1% raffinose, 1% tergitol and 25 μM of the lithium salts of either [1-^14C]18:3n-3 (1 μCi), [1-^14C]18:3n-6 (1 μCi), [1-^14C]20:4n-6 (2 μCi), or [1-^14C]20:5n-3 (2 μCi). After 4 h incubation in an orbital incubator at 270 rpm and 30° C., cells reached the log phase and the transgene, expression was induced with galactose 30° C., cells reached the log phase and the transgene expression was induced with galactose (2% final concentration). The yeast were incubated for an additional 19 h and then harvested by centrifugation at 5000×g for 10 minutes at 4° C.
(§3) Cells were washed with Tris-HCl buffer (100 mM, pH 8.0) containing 0.1% BSA and total lipids were extracted as described below. The radioactivity from aliquots of the incubation medium, supernatant and cells was determined by liquid scintillation counting using a LS6500-Scintillation System (Beckman).
(§4) Alternatively, cells were resuspended in 1.5 ml of water and saponified with 2 ml of 10% KOH in ethanol. The total lipid extracts or the free fatty acids from the saponified samples were methylated using boron trifluoride in methanol at 90° C. for 30 min. The resultant methyl esters (FAME) were analyzed as described below.
(§5) Analyses of radiolabelled FAME were carried out on a Hewlett Packard 1090, series II chromatograph equipped with a diode array detector set at 205 nm, a radioisotope detector (model 171, Beckman, CA) with a solid scintillation cartridge (97% efficiency for ^14C-detection) and a reverse phase ODS (C-18) Beckman column (250 mm×4.6 mm i.d.; 5 μm particle size) attached to a pre-column with a μBondapak C-18 (Beckman) insert. FAME were separated isocratically with acetonitrile/water (95.5 v/v) at a flow rate of 1 ml/min and were identified by comparison with authentic standards. Alternatively, the eluted FAME were collected and the solvent evaporated. FAME were re-dissolved in hexane for further analysis by gas chromatography.
From the text for 18:3n-6: as §1, §2, §3, §4, §5
From the text for 20:4n-6: as §1, §2, §3, §4, §5

On to `CCCCN(CC)C(=O)[S+]([O-])CCC` (centres unmarked) [Pebulate sulphoxide, sulphoxide derivative of S-propylbutylethylthiocarbamate], for which the “% conversion 24:6n-3” value with rat liver elongase (1 μM) came out at 9.6%; in the assay with rat liver elongase (10 μM) it was 10.9%; with rat liver elongase (50 μM) it was 7.9%; with rat liver elongase (100 μM) it was 4.5%. Also, the “% conversion 22:5n-3” value in the assay on rat liver elongase (1 μM) came to 12.5%; in the assay with rat liver elongase (10 μM), 12.5%; in the assay with rat liver elongase (50 μM), 12.2%; with rat liver elongase (100 μM), 10.2%; at ELG3/V5-His (1 μM) it was 13.8%; on ELG3/V5-His (10 μM), 12.8%. Besides, the “% conversion 22:5n-3” value stood at 11.3% at ELG3/V5-His (50 μM) and 9.4% at ELG3/V5-His (100 μM). The “% conversion 24:5n-3” value with rat liver elongase (1 μM) worked out at 47.5%; in the assay with rat liver elongase (10 μM), 47.2%; in the assay with rat liver elongase (50 μM) it was 48.7%; with rat liver elongase (100 μM), 28.0%; at ELG3/V5-His (1 μM), 5.6%; at ELG3/V5-His (10 μM) it was 6.6%. In addition, the “% conversion 24:5n-3” value is on record as 4.6% on ELG3/V5-His (50 μM) and 4.3% at ELG3/V5-His (100 μM). In addition, the “% conversion Total” value with rat liver elongase (1 μM) was 69.3%; with rat liver elongase (10 μM) it was 70.7%; with rat liver elongase (50 μM), 68.8%; in the assay with rat liver elongase (100 μM), 42.7%; at ELG3/V5-His (1 μM), 19.4%; on ELG3/V5-His (10 μM) it was 19.4%. Besides, the “% conversion Total” value on ELG3/V5-His (50 μM) was 15.9%; on ELG3/V5-His (100 μM) it was 13.7%. The “reduction of elongation (rat liver elongase activity)” value with rat liver elongase (100 μM, 20:5n-3 as substrate) is “approximately 30%”. Also, the “reduction of elongation (ELG3/V5-His activity)” value at ELG3/V5-His (100 μM, 20:5n-3 as substrate) was “approximately 27%”.

B1: ELG4: human PUFA elongase (SEQ ID NO: 5) expressed in yeast from plasmid pTh1021.1 (protein)
chain: MAFSDLTSRTVHLYDNWIKDADPRVEDWLLMSSPLPQTILLGFYVYFVTSLGPKLMENRKPFELKKAMITYNFFIVLFSVYMCYEFVMSGWGIGYSFRCDIVDYSRSPTALRMARTCWLYYFSKFIELLDTIFFVLRKKNSQVTFLHVFHHTIMPWTWWFGVKFAAGGLGTFHALLNTAVHVVMYSYYGLSALGPAYQKYLWWKKYLTSLQLVQFVIVAIHISQFFFMEDCKYQFPVFACIIMSYSFMFLLLFLHFWYRAYTKGQRLPKTVKNGTCKNKDN
modifications: human
Turning to B1, the “Percent Elongation of 20:5n-3 to 22:5” value in the assay with 20:5n-3 (product 22:5n-3) worked out at 15%. Moreover, in the assay on 20:5n-3 (product 24:5n-3), the “Percent Elongation of 20:5n-3 to 24:5” value was 3%. Besides, the “Percent Elongation of 18:3n-3 to 20:3” value with 18:3n-3 (setting [1]) is recorded as 10%. Besides, the “Percent Elongation of 18:3n-3 to 22:3” value in the assay on 18:3n-3 (untagged elongase, 25 μM substrate, product 22:3n-3) is recorded as 4%. The “Percent Elongation of 18:3n-6 to 20:3” value in the assay on 18:3n-6 came out at 20%. In addition, the “Percent Elongation of 18:3n-6 to 22:3” value in the assay on 18:3n-6 (product 22:3n-6) stood at 4%. In addition, the figures for the “Percent Elongation of 20:4n-6 to 22:4” value with 20:4n-6 (V5-His tagged elongase) and in the assay on 20:4n-6 (setting [1]) were 12% and 24%, respectively. Also, the “Percent Elongation of 20:4n-6 to 24:4” value in the assay on 20:4n-6 (untagged elongase, 25 μM substrate, product 24:4n-6) came to 2%.

B2: ELG6: human PUFA elongase (SEQ ID NO: 9) expressed in yeast from plasmid pTh1041.1 (protein)
chain: MVTAMNVSHEVNQLFQPYNFELSKDMRPFFEEYWATSFPIALIYLVLIAVGQNYMKERKGFNLQGPLILWSFCLAIFSILGAVRMWGIMGTVLLTGGLKQTVCFINFIDNSTVKFWSWVFLLSKVIELGDTAFIILRKRPLIFIHWYHHSTVLVYTSFGYKNKVPAGGWFVTMNFGVHAIMYTYYTLKAANVKPPKMLPMLITSLQILQMFVGAIVSILTYIWRQDQGCHTTMEHLFWSFILYMTYFILFAHFFCQTYIRPKVKAKTKSQ
modifications: human
B2: the “Percent Elongation of 18:3n-3 to 20:3” value with 18:3n-3 (V5-His tagged elongase) and in the assay with 18:3n-3 (setting [1]) was 3% each time. Besides, the “Percent Elongation of 18:3n-6 to 20:3” value with 18:3n-6 is given as 2%.

B3: ELG7: human PUFA elongase (SEQ ID NO: 12) expressed in yeast from plasmid pTh1044.1 (protein)
chain: MGLLDSEPGSVLNVVSTALNDTVEFYRWTWSIADKRVENWPLMQSPWPTLSISTLYLLFVWLGPKWMKDREPFQMRLVLIIYNFGMVLLNLFIFRELFMGSYNAGYSYICQSVDYSNNVHEVRIAAALWWYFVSKGVEYLDTVFFILRKKNNQVSFLHVYHHCTMFTLWWIGIKWVAGGQAFFGAQLNSFIHVIMYSYYGLTAFGPWIQKYLWWKRYLTMLQLIQFHVTIGHTALSLYTDCPFPKWMHWALIAYAISFIFLFLNFYIRTYKEPKKPKAGKTAMNGISANGVSKSEKQLMIENGKKQKNGKAKGD
modifications: human
Take B3: the “Percent Elongation of 18:3n-3 to 20:3” value in the assay with 18:3n-3 (V5-His tagged elongase) was determined as 4%; with 18:3n-3 (setting [1]), 5%.

Source of the values: patent US7297523B2, “Human elongase genes and uses thereof” (Xenon Pharmaceuticals Inc., priority 2000, dated 2007).
